The values below come from ChEMBL document CHEMBL1153945 (Bioorg Med Chem, 2009).

One assay deals with T1, Nitric oxide synthase 3 (Bos taurus, UniProt P29473).
T1 sequence (P29473 whole entry): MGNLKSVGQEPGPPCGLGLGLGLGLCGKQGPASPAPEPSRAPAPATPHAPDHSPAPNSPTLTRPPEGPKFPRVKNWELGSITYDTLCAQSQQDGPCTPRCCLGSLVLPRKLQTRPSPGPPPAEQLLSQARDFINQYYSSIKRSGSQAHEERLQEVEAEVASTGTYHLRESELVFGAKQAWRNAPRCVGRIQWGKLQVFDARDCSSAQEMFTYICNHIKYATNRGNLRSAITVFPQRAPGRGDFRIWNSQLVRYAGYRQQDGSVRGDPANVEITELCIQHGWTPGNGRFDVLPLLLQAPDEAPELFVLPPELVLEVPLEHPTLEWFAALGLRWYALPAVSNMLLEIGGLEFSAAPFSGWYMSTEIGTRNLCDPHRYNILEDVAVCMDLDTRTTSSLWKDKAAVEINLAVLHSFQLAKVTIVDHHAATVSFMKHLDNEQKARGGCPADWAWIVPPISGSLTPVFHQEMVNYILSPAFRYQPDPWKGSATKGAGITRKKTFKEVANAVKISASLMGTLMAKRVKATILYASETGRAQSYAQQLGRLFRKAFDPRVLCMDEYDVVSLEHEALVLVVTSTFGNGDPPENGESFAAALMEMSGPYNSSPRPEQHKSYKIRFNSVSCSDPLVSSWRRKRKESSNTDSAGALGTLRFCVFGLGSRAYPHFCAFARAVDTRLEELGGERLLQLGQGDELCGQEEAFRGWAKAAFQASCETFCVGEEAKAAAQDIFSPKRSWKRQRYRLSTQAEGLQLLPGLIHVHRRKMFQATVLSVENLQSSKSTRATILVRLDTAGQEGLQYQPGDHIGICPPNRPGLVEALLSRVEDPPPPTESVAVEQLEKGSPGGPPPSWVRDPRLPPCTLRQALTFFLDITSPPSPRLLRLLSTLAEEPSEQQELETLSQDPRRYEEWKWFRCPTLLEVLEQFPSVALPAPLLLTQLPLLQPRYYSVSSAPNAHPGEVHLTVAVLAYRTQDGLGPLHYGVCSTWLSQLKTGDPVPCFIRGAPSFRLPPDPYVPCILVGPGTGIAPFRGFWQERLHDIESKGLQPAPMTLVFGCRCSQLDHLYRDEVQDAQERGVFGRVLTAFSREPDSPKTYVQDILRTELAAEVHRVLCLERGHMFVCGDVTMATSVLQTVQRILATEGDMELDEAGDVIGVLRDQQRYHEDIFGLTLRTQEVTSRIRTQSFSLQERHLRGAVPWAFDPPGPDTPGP

For a further assay, the target named is Nitric oxide synthase 1 (Rattus norvegicus, UniProt P29476).
Assay [1] has as its target T2, Nitric oxide synthase, inducible (Mus musculus, UniProt P29477).
T2 sequence (P29477 whole entry): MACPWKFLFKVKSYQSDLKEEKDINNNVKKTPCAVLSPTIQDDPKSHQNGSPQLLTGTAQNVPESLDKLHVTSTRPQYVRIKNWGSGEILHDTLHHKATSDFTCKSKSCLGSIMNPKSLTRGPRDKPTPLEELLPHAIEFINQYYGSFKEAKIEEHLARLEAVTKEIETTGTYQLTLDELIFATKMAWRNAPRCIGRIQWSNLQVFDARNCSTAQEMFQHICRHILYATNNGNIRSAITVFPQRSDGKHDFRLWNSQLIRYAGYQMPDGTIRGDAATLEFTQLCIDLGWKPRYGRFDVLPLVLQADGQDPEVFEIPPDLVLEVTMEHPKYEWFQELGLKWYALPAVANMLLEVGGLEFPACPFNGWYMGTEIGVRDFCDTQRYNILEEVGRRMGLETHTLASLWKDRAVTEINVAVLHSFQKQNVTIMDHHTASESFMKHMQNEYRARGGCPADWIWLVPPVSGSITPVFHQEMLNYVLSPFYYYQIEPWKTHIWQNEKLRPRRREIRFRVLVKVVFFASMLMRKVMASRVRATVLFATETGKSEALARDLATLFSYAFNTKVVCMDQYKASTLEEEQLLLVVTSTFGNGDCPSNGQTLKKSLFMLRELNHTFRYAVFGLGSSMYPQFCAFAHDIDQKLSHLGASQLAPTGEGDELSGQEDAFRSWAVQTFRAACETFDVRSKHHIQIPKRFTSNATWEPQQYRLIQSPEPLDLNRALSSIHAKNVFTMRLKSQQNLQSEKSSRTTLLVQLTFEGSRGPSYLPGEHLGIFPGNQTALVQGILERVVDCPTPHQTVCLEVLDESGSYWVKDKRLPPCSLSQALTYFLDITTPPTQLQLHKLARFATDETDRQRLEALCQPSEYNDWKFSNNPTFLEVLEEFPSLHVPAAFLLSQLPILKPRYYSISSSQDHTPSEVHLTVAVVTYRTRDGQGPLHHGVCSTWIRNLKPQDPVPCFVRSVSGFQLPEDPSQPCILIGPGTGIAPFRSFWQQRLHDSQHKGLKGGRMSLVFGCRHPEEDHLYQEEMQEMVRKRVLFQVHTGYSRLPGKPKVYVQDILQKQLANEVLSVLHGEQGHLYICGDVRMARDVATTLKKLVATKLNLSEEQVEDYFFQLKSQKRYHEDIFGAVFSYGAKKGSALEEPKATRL
Description: Inhibition of mouse recombinant iNOS expressed in Escherichia coli assessed as nitric oxide formation by hemoglobin capture assay

Chain of Nitric oxide synthase 1 (P29476 whole entry): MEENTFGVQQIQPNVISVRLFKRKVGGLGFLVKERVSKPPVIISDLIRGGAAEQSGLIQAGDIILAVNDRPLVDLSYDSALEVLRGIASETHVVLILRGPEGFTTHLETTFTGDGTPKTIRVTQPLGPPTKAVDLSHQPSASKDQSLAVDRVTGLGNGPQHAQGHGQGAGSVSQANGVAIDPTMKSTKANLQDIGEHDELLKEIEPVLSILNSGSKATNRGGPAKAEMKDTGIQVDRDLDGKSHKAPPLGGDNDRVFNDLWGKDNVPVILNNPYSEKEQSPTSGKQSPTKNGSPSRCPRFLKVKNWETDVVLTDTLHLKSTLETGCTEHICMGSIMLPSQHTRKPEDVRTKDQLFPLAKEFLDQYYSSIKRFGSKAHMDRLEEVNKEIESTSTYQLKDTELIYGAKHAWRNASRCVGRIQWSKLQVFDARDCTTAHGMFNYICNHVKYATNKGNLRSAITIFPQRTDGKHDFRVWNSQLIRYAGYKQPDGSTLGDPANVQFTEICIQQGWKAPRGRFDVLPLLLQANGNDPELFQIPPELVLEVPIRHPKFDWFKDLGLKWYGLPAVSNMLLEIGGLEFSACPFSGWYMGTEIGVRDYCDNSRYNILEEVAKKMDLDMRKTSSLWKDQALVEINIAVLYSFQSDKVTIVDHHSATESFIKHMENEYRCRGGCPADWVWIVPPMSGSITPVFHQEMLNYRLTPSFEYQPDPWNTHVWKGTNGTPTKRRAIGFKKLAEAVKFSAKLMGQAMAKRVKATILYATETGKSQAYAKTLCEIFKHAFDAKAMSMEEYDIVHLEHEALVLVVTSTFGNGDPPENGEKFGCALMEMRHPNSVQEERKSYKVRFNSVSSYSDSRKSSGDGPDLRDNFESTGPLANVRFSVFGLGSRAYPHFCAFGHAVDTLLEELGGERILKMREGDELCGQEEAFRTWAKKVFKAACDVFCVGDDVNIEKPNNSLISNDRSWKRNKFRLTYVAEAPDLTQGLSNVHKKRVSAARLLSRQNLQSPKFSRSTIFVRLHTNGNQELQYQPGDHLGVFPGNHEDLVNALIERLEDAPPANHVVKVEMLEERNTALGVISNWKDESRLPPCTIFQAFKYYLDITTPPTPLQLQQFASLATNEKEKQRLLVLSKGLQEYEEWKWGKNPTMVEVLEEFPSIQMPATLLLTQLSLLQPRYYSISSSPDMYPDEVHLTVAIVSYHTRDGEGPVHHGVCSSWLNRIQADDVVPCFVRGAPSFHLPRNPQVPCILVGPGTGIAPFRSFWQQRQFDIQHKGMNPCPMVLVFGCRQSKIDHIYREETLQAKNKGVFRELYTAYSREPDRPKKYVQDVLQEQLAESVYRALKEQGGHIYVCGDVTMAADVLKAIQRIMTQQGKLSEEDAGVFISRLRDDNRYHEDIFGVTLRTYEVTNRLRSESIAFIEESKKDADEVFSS
Description for Nitric oxide synthase 1: Inhibition of rat recombinant nNOS expressed in Escherichia coli assessed as nitric oxide formation by hemoglobin capture assay
Description for Nitric oxide synthase 3: Inhibition of bovine recombinant eNOS expressed in Escherichia coli assessed as nitric oxide formation by hemoglobin capture assay

Consider `Cc1cc(N)nc(C[C@H]2CNC[C@H]2OCCNC(=O)Cc2cccc(F)c2)c1` (racemic), for which the Ki came out at 107 µM on Nitric oxide synthase 3 and 5 µM at Nitric oxide synthase 1.

At Nitric oxide synthase 1, `Cc1cc(N)nc(C[C@H]2CNC[C@H]2NC(=O)CNCCc2cccc(F)c2)c1` (racemic) yielded a Ki of 0.053 µM.

`Cc1cc(N)nc(C[C@H]2CNC[C@H]2NCCOCCc2cccc(F)c2)c1` (racemic): the Ki is 33 µM on Nitric oxide synthase 3, 4 µM in assay [1] and 0.4 µM at Nitric oxide synthase 1.

Regarding `Cc1cc(N)nc(C[C@H]2CNC[C@H]2OCC(=O)NCCc2cccc(F)c2)c1` (racemic), on Nitric oxide synthase 3, the affinity, expressed as Ki, was 145 µM.
